Our source for the Ki values is patent US12723063B2, “GIPR-agonist compounds” (Eli Lilly and Company, priority 2019, dated 2026).

*1 amine or outer side, *2 acyl side, *3 side chain or, on linkers, in order; H or OH if unused. Where a SMILES comes first, the peptide text is derived from it. Side-chain parts run from the residue outwards. [ ]: non-standard residue; d: D form. The star is where a group is joined. C20 diacid = O=C(O)CCCCCCCCCCCCCCCCCCC(=O)*; γGlu = O=C(O)[C@H](CCC(=O)[*:2])N[*:1]; 4Pal = N[C@@H](Cc1ccncc1)C(=O)O; αMeL = CC(C)C[C@](C)(N)C(=O)O; Orn = NCCC[C@H](N)C(=O)O; AEEA = NCCOCCOCC(=O)O; Aib = CC(C)(N)C(=O)O Bounds are passed on as bounds.

In one assay the target is T1, human GcgR (Homo sapiens, UniProt P47871).
T1 construct: expressed in transfected cells; crude membranes
In words: [125I]-Glucagon binding, SPA with WGA beads, 0.1% bacitracin. The following applies: geometric mean, read-out: hGcgR Ki. The method, boiled down: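 SPA competition binding with WGA beads on crude membranes from HEK293 cells stably expressing hGcgR. Buffer: 25 mM HEPES pH 7.4, 2.5 mM CaCl2, 1 mM MgCl2, 0.1% bacitracin, 0.003% Tween-20; 10-point 3-fold dilutions, NSB with 1 μM Gcg.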

The next assay has as its target T2, human GIPR (Homo sapiens, UniProt P48546).
T2 construct: expressed in transfected cells; crude membranes
T2 sequence (P48546 22-466): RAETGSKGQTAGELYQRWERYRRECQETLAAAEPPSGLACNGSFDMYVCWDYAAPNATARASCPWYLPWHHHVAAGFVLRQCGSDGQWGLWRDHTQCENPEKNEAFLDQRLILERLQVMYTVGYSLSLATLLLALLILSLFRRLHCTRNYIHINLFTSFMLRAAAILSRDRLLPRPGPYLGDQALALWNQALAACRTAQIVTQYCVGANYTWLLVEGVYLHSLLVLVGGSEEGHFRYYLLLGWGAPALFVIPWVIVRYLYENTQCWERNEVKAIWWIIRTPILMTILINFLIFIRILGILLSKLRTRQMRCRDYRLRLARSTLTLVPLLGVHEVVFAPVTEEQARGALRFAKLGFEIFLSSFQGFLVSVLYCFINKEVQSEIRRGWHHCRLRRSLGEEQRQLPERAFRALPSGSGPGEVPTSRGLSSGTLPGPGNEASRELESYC
As to the kind of experiment: [125I]-GIP binding, SPA with WGA beads, 0.1% bacitracin. Conditions: geometric mean, read-out: hGIPR Ki. The gist of the method:
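Ki values are geometric means (SEM, n independent days), derived from four-parameter nonlinear regression of IC50. Membranes came from hGIPR-expressing CHO cells.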

Another assay concerns the target T3, human GLP-1R (Homo sapiens, UniProt P43220).
T3 construct: expressed in transfected cells; crude membranes
As to the kind of experiment: [125I]-GLP-1 binding, SPA with WGA beads, 0.1% bacitracin. The following applies: geometric mean, read-out: hGLP1R Ki. The gist of the method: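 Binding buffer was 25 mM HEPES pH 7.4 with 2.5 mM CaCl2, 1 mM MgCl2, 0.1% (w/v) bacitracin, 0.003% Tween-20 and EDTA-free protease inhibitors. Four-parameter regression gave IC50, converted to Ki (geometric mean, SEM, n independent days).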

T1 sequence (P47871 26-477): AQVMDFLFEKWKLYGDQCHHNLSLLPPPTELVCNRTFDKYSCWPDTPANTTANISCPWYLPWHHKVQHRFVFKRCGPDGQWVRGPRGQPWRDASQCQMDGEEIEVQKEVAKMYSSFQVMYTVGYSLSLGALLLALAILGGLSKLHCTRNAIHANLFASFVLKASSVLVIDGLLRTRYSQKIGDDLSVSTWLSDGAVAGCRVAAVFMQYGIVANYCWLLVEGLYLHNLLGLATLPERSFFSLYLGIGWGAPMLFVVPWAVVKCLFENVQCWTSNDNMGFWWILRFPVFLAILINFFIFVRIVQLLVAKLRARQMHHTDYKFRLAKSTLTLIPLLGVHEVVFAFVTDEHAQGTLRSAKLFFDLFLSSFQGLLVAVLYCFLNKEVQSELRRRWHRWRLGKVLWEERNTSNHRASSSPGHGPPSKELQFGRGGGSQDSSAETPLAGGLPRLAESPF
T3 sequence (P43220 24-463): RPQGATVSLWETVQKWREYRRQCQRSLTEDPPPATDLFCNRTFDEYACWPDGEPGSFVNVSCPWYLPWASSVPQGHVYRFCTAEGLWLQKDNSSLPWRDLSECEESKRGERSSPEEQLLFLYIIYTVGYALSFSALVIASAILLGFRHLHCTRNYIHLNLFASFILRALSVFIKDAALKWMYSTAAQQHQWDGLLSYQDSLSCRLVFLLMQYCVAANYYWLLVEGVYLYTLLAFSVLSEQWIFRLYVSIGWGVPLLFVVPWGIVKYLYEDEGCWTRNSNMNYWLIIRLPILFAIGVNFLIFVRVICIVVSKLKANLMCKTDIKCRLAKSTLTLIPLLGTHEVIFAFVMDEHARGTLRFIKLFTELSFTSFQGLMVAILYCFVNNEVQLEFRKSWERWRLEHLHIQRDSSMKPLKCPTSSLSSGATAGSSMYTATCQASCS

Turning to `CC[C@H](C)[C@H](NC(=O)[C@H](CCCN)NC(=O)[C@H](CC(=O)O)NC(=O)[C@H](CC(C)C)NC(=O)[C@](C)(CC(C)C)NC(=O)[C@@H](NC(=O)[C@H](CO)NC(=O)[C@H](Cc1ccc(O)cc1)NC(=O)[C@H](CC(=O)O)NC(=O)[C@H](CO)NC(=O)[C@@H](NC(=O)[C@H](Cc1ccccc1)NC(=O)[C@@H](NC(=O)CNC(=O)[C@H](CCC(=O)O)NC(=O)C(C)(C)NC(=O)[C@@H](N)Cc1ccc(O)cc1)[C@@H](C)O)[C@@H](C)CC)[C@@H](C)CC)C(=O)N[C@@H](Cc1c[nH]cn1)C(=O)N[C@@H](CCC(N)=O)C(=O)NC(C)(C)C(=O)N[C@@H](CCC(=O)O)C(=O)N[C@@H](Cc1ccccc1)C(=O)N[C@H](C(=O)N[C@@H](CCC(=O)O)C(=O)N[C@@H](Cc1ccncc1)C(=O)N[C@@H](CCCCNC(=O)COCCOCCNC(=O)COCCOCCNC(=O)CC[C@H](NC(=O)CCCCCCCCCCCCCCCCCCC(=O)O)C(=O)O)C(=O)N[C@@H](CC(C)C)C(=O)N[C@@H](CCC(=O)O)C(=O)N[C@@H](C)C(=O)NCC(=O)N1CCC[C@H]1C(=O)N[C@@H](CO)C(=O)N[C@@H](CO)C(=O)NCC(=O)N[C@@H](C)C(=O)N1CCC[C@H]1C(=O)N1CCC[C@H]1C(=O)N1CCC[C@H]1C(=O)N[C@@H](CO)C(N)=O)C(C)C` [Example 122] (H-Y[Aib]EGTFISDYSI[αMeL]LD[Orn]IHQ[Aib]EFVE[4Pal]K([AEEA-AEEA-γGlu-C20 diacid])LEAGPSSGAPPPS-NH2), the figures for the Ki on human GcgR, at human GIPR and at human GLP-1R were 957 nM, 0.0311 nM and more than 913 nM, respectively.

On to `CC[C@H](C)[C@H](NC(=O)[C@H](CCCN)NC(=O)[C@H](CC(=O)O)NC(=O)[C@H](CC(C)C)NC(=O)[C@](C)(CC(C)C)NC(=O)[C@@H](NC(=O)[C@H](CO)NC(=O)[C@H](Cc1ccc(O)cc1)NC(=O)[C@H](CC(=O)O)NC(=O)[C@H](CO)NC(=O)[C@@H](NC(=O)[C@H](Cc1ccccc1)NC(=O)[C@@H](NC(=O)CNC(=O)[C@H](CCC(=O)O)NC(=O)C(C)(C)NC(=O)[C@@H](N)Cc1ccc(O)cc1)[C@@H](C)O)[C@@H](C)CC)[C@@H](C)CC)C(=O)N[C@@H](Cc1c[nH]cn1)C(=O)N[C@@H](CCC(N)=O)C(=O)NC(C)(C)C(=O)N[C@@H](CCC(=O)O)C(=O)N[C@@H](Cc1ccccc1)C(=O)N[C@H](C(=O)N[C@@H](CCC(=O)O)C(=O)N[C@@H](Cc1ccc(O)cc1)C(=O)N[C@@H](CCCCNC(=O)COCCOCCNC(=O)COCCOCCNC(=O)CC[C@H](NC(=O)CCCCCCCCCCCCCCCCCCC(=O)O)C(=O)O)C(=O)N[C@@H](CC(C)C)C(=O)N[C@@H](CCC(=O)O)C(=O)N[C@H](C(=O)NCC(=O)N1CCC[C@H]1C(=O)N[C@@H](CO)C(=O)N[C@@H](CO)C(=O)NCC(=O)N[C@@H](C)C(=O)N1CCC[C@H]1C(=O)N1CCC[C@H]1C(=O)N1CCC[C@H]1C(=O)N[C@@H](CO)C(N)=O)[C@@H](C)O)C(C)C` [Example 105] (H-Y[Aib]EGTFISDYSI[αMeL]LD[Orn]IHQ[Aib]EFVEYK([AEEA-AEEA-γGlu-C20 diacid])LETGPSSGAPPPS-NH2), for which the Ki is more than 960 nM at human GcgR, 0.174 nM at human GIPR and more than 910 nM at human GLP-1R.

As to `CC[C@H](C)[C@H](NC(=O)[C@H](Cc1ccccc1)NC(=O)[C@@H](NC(=O)CNC(=O)[C@H](CCC(=O)O)NC(=O)C(C)(C)NC(=O)[C@@H](N)Cc1ccc(O)cc1)[C@@H](C)O)C(=O)N[C@@H](CO)C(=O)N[C@@H](CC(=O)O)C(=O)N[C@@H](Cc1ccc(O)cc1)C(=O)N[C@@H](CO)C(=O)N[C@H](C(=O)N[C@@](C)(CC(C)C)C(=O)N[C@@H](CC(C)C)C(=O)N[C@@H](CC(=O)O)C(=O)N[C@@H](CCCCN)C(=O)N[C@@H](CCCCNC(=O)COCCOCCNC(=O)COCCOCCNC(=O)CC[C@H](NC(=O)CCCCCCCCCCCCCCCCCCC(=O)O)C(=O)O)C(=O)N[C@@H](Cc1c[nH]cn1)C(=O)N[C@@H](CCC(N)=O)C(=O)NC(C)(C)C(=O)N[C@@H](CC(=O)O)C(=O)N[C@@H](Cc1ccccc1)C(=O)N[C@H](C(=O)N[C@@H](CCC(=O)O)C(=O)N[C@@H](Cc1ccncc1)C(=O)N[C@@H](CC(C)C)C(=O)N[C@@H](CC(C)C)C(=O)N[C@@H](C)C(=O)N[C@@H](CCC(N)=O)C(=O)NCC(=O)N1CCC[C@H]1C(=O)N[C@@H](CO)C(=O)N[C@@H](CO)C(=O)NCC(=O)N[C@@H](C)C(=O)N1CCC[C@H]1C(=O)N1CCC[C@H]1C(=O)N1CCC[C@H]1C(=O)N[C@@H](CO)C(N)=O)C(C)C)[C@@H](C)CC` [Example 79] (H-Y[Aib]EGTFISDYSI[αMeL]LDKK([AEEA-AEEA-γGlu-C20 diacid])HQ[Aib]DFVE[4Pal]LLAQGPSSGAPPPS-NH2), the values for the Ki at human GcgR, on human GIPR and at human GLP-1R were 888 nM, 0.0229 nM and 486 nM, respectively.

For the molecule `CC[C@H](C)[C@H](NC(=O)[C@H](CCCN)NC(=O)[C@H](CC(=O)O)NC(=O)[C@H](CC(C)C)NC(=O)[C@](C)(CC(C)C)NC(=O)[C@@H](NC(=O)[C@H](CO)NC(=O)[C@H](Cc1ccc(O)cc1)NC(=O)[C@H](CC(=O)O)NC(=O)[C@H](CO)NC(=O)[C@@H](NC(=O)[C@H](Cc1ccccc1)NC(=O)[C@@H](NC(=O)CNC(=O)[C@H](CCC(=O)O)NC(=O)C(C)(C)NC(=O)[C@@H](N)Cc1ccc(O)cc1)[C@@H](C)O)[C@@H](C)CC)[C@@H](C)CC)C(=O)N[C@@H](Cc1c[nH]cn1)C(=O)N[C@@H](CCC(N)=O)C(=O)NC(C)(C)C(=O)N[C@@H](CCC(=O)O)C(=O)N[C@@H](Cc1ccccc1)C(=O)N[C@H](C(=O)N[C@@H](CCC(=O)O)C(=O)N[C@@H](Cc1ccc(O)cc1)C(=O)N[C@@H](CCCCNC(=O)COCCOCCNC(=O)COCCOCCNC(=O)CC[C@H](NC(=O)CCCCCCCCCCCCCCCCCCC(=O)O)C(=O)O)C(=O)N[C@@H](CC(C)C)C(=O)N[C@@H](CCC(=O)O)C(=O)N[C@@H](CCC(N)=O)C(=O)NCC(=O)N1CCC[C@H]1C(=O)N[C@@H](CO)C(=O)N[C@@H](CO)C(=O)NCC(=O)N[C@@H](C)C(=O)N1CCC[C@H]1C(=O)N1CCC[C@H]1C(=O)N1CCC[C@H]1C(=O)N[C@@H](CO)C(N)=O)C(C)C` [Example 106] (H-Y[Aib]EGTFISDYSI[αMeL]LD[Orn]IHQ[Aib]EFVEYK([AEEA-AEEA-γGlu-C20 diacid])LEQGPSSGAPPPS-NH2), the Ki was 304 nM on human GcgR, 0.0918 nM at human GIPR and more than 910 nM at human GLP-1R.

Take `CC[C@H](C)[C@H](NC(=O)[C@H](CO)NC(=O)[C@H](Cc1ccc(O)cc1)NC(=O)[C@H](CC(=O)O)NC(=O)[C@H](CO)NC(=O)[C@@H](NC(=O)[C@H](Cc1ccccc1)NC(=O)[C@@H](NC(=O)CNC(=O)[C@H](CCC(=O)O)NC(=O)[C@@H](C)NC(=O)[C@@H](N)Cc1ccc(O)cc1)[C@@H](C)O)[C@@H](C)CC)C(=O)N[C@@H](CC(C)C)C(=O)N[C@@H](CC(C)C)C(=O)N[C@@H](CC(=O)O)C(=O)N[C@@H](CCCCN)C(=O)N[C@@H](CCCCNC(=O)COCCOCCNC(=O)COCCOCCNC(=O)CC[C@H](NC(=O)CCCCCCCCCCCCCCCCCCC(=O)O)C(=O)O)C(=O)N[C@@H](Cc1c[nH]cn1)C(=O)N[C@@H](CCC(N)=O)C(=O)N[C@@H](CCC(N)=O)C(=O)N[C@@H](CC(=O)O)C(=O)N[C@@H](Cc1ccccc1)C(=O)N[C@H](C(=O)N[C@@H](CCC(=O)O)C(=O)N[C@@H](Cc1c[nH]c2ccccc12)C(=O)N[C@@H](CC(C)C)C(=O)N[C@@H](CC(C)C)C(=O)N[C@@H](C)C(=O)N[C@@H](CCC(N)=O)C(=O)NCC(=O)N1CCC[C@H]1C(=O)N[C@@H](CO)C(=O)N[C@@H](CO)C(=O)NCC(=O)N[C@@H](C)C(=O)N1CCC[C@H]1C(=O)N1CCC[C@H]1C(=O)N1CCC[C@H]1C(=O)N[C@@H](CO)C(N)=O)C(C)C` [Example 14] (H-Y[dA]EGTFISDYSILLDKK([AEEA-AEEA-γGlu-C20 diacid])HQQDFVEWLLAQGPSSGAPPPS-NH2): the Ki on human GcgR was more than 230 nM; at human GIPR it was 0.46 nM; at human GLP-1R, more than 213 nM.
